Test results: patent EP1331219A1
Counter-ions that a name gives are not always drawn.

Legend:
Assay type in all cases: binding, mouse
[1] = target: murine monoclonal antibody DASM243-6H5D1C4 (IgG2b), raised against TT-Met1; test: RIA: affinity determination by competition between labeled and unlabeled metabolite; conditions: purified mAb, calculated by the method of Müller from IC50
[2] = target: murine monoclonal antibody DASM243-A10A6A2 (IgG1), raised against TT-Met1; test: as above; conditions: purified mAb, calculated by the method of Müller from IC50
[3] = tested on: murine monoclonal antibody 6H5D1C4 (DASM243-6H5D1C4); test: Competition ELISA on BSA-Met1 coated plates: cross reactivity with methamphetamine analogs; conditions: methamphetamine recognized more than ecstasy

SMILES	Ka [1] [M⁻¹]	Ka [2] [M⁻¹]	recognition of methamphetamine relative to ecstasy [3] [times]
CNC(C)Cc1ccccc1 (stereo not drawn) [methamphetamine oxalate]	2.58e+08	5.58e+06	–
CN[C@@H](C)Cc1ccccc1 [Methamphetamine, methamphetamine]	–	–	10
